These results are taken from patent publication US20260250301A1, “KRAS G12D INHIBITORS AND USES THEREOF” (SUZHOU ZANRONG PHARMA LIMITED, priority 2023, published 2026).

The first experiment deals with PANC-1 pERK. The experiment can be described thus: Phospho-ERK 1/2 assay. The following applies: Homo sapiens, PANC-1, 3 h, PANC-1 cells, compound incubation 3 hours, pERK normalised with GAPDH antibody staining. Type of experiment: cell-based. As to the method:
Allow PNAC-1 cell growth in a T75 flask in DMEM and 10% 1 fetal calf serum (FCS; Gibco®), using standard tissue culture procedures until ~80% confluency is achieved. Day 1, seed 6000 cells/well in 384 well plate and incubate at 37° C., 5% CO2. Add diluted compound by Echo 550, final DMSO is 0.5%, incubate cells at 37° C., 5% CO2 for 3 hours. Then, remove medium and fix cells with 3.7% formaldehyde in PBS (PFA) by Apricot. Wash with PBS once. Permeabilize cells with cold 100% methanol and repeat wash once with PBS once. Add Li-Cor blocking buffer to each well and incubate 1.5 hours at RT. Remove blocking buffer and add primary antibody mixture (rabbit anti pERK, mouse anti GAPDH). Incubate at 4° C. overnight. Day 2, wash with PBST (Tween-20 in PBS) with total 3 times and then add secondary antibody mixture (goat anti rabbit 800CW (1:800 dilution in the combined solution) and goat anti mouse 680RD (1:800 dilution in the combined solution)), incubate for 60 minutes at RT away from light. Repeat washing with PBST 3 times. After final wash, centrifuge plate up-side-down at 1000 rpm to remove wash solution completely from wells. Before plate scanning, clean the bottom plate surface and the Odyssey© Imager scanning bed (if applicable) with moist, lint-free tissue to avoid any obstructions during scanning. Scan plate with detection in both 700 and 800 nm channels.
In turn, `C=C1CN2CCC[C@@]2(Cn2c(=O)nc3c4c(nc(-c5cc(O)cc6ccc(F)c(CC)c56)c(F)c42)OC[C@@H]2[C@@H]4CC[C@H](CN32)N4)C1` (single isomer, unassigned) [Example 46a] displayed a half-maximal inhibitory concentration (IC50) of 0.0059 µM.
The same measure, in the same setting: under `C=C1CN2CCC[C@]2(Cn2c(=O)nc3c4c(nc(-c5cc(O)cc6ccc(F)c(CC)c56)c(F)c42)OC[C@@H]2[C@@H]4CC[C@H](CN32)N4)C1` (single isomer, unassigned) [Example 46b] stands 0.028 µM; under `C#Cc1c(F)ccc2cccc(-c3nc4c5c(nc(=O)n(C[C@]67CCCN6CC(=C)C7)c5c3F)N3C[C@H]5CC[C@H](N5)[C@H]3[C@H](C)O4)c12` (single isomer, unassigned) [Example 200b], 0.697 µM.
Same read-out and setting: the result for `C#Cc1c(F)ccc2cccc(-c3nc4c5c(nc(=O)n(C[C@]67CC(=C)CN6C[C@@H](F)C7)c5c3F)N3C[C@H]5CC[C@H](N5)[C@H]3[C@H](C)O4)c12` (single isomer, unassigned) [Example 202b] reads 0.991 µM.
On the same count and under the same terms, under `CCc1c(F)ccc2cc(O)cc(-c3nc4c5c(nc(=O)n(C[C@@]67CCCN6C[C@H](F)C7)c5c3F)N3C[C@@](C)(O)CCC3CO4)c12` (single isomer, unassigned) [Example 350a1] stands 0.151 µM; under `CCc1c(F)ccc2cc(O)cc(-c3nc4c5c(nc(=O)n(C(C)[C@H]6CCN6C)c5c3F)N3C[C@H]5CC[C@H](N5)[C@H]3[C@H](C)O4)c12` (single isomer, unassigned) [Example 376a], 0.145 µM; under `C#Cc1c(F)ccc2cccc(-c3nc4c5c(nc(=O)n(C[C@@]67CCCN6C[C@H](F)C7)c5c3F)N3C[C@H]5CC[C@H](N5)[C@H]3CO4)c12` [Example 1, (5aS,6S,9R)-2-(8-ethynyl-7-fluoronaphthalen-1-yl)-1-fluoro-13-(((2R,7aS)-2-fluorotetrahydro-1H-pyrrolizin-7a(5H)-yl)methyl)-5a,6,7,8,9,10-hexahydro-5H-4-oxa-3,10a,11,13,14-pentaaza-6,9-methanonaphtho[1,8-ab]heptalen-12(13H)-one], 0.386 µM.
`C#Cc1c(F)ccc2cccc(-c3nc4c5c(nc(=O)n(CC67CCCN6CC(=C)C7)c5c3F)N3C[C@H]5CC[C@H](N5)[C@H]3CO4)c12` (stereo partly drawn) [Example 2] displayed an IC50 of 0.015 µM.
The same measure, in the same setting: the result for `C#Cc1c(F)ccc2cc(O)cc(-c3nc4c5c(nc(=O)n(CC67CCCN6CC(=C)C7)c5c3F)N3C[C@H]5CC[C@H](N5)[C@H]3CO4)c12` (stereo partly drawn) [Example 24] reads 0.085 µM; that for `CCc1c(F)ccc2cc(O)cc(-c3nc4c5c(nc(=O)n(C[C@@]67CCCN6C[C@H](F)C7)c5c3F)N3C[C@H]5CC[C@H](N5)[C@H]3CO4)c12` [Example 45, (8aS,9S,12R)-5-(8-ethyl-7-fluoro-3-hydroxynaphthalen-1-yl)-4-fluoro-3-(((2R,7aS)-2-fluorotetrahydro-1H-pyrrolizin-7a(5H)-yl)methyl)-8a,9,10,11,12,13-hexahydro-8H-7-oxa-1,3,6,13a,14-pentaaza-9,12-methanonaphtho[1,8-ab]heptalen-2(3H)-one], 0.023 µM; that for `C=C1CN2CC(=C)CC2(Cn2c(=O)nc3c4c(nc(-c5cc(O)cc6ccc(F)c(CC)c56)c(F)c42)OC[C@@H]2[C@@H]4CC[C@H](CN32)N4)C1` [Example 47], 0.629 µM.
Turning to `C#Cc1c(F)ccc2cccc(-c3nc4c5c(nc(=O)n(C[C@@]67CCCN6C[C@H](F)C7)c5c3F)N3C[C@H]5CC[C@H](N5)[C@H]3[C@H](C)O4)c12` [Example 199, (5S,5aS,6S,9R)-2-(8-ethynyl-7-fluoronaphthalen-1-yl)-1-fluoro-13-(((2R,7aS)-2-fluorotetrahydro-1H-pyrrolizin-7a(5H)-yl)methyl)-5-methyl-5a,6,7,8,9,10-hexahydro-5H-4-oxa-3,10a,11,13,14-pentaaza-6,9-methanonaphtho[1,8-ab]heptalen-12(13H)-one], the concentration for half-maximal inhibition (IC50) worked out at 0.037 µM. Compared with the last compound, the IC50 is about 17-fold lower.
The same measure, in the same setting: under `C#Cc1c(F)ccc2cc(O)cc(-c3nc4c5c(nc(=O)n(CC67CCCN6CC(=C)C7)c5c3F)N3C[C@H]5CC[C@H](N5)[C@H]3[C@H](C)O4)c12` (stereo partly drawn) [Example 222] stands 0.113 µM; under `CCc1c(F)ccc2cc(O)cc(-c3nc4c5c(nc(=O)n(C[C@@]67CCCN6C[C@H](F)C7)c5c3F)N3C[C@H]5CC[C@H](N5)[C@H]3[C@H](C)O4)c12` [Example 227], 0.0052 µM.
On the same count and under the same terms, the result for `C=C1CN2CCCC2(Cn2c(=O)nc3c4c(nc(-c5cc(O)cc6ccc(F)c(CC)c56)c(F)c42)O[C@@H](C)[C@@H]2[C@@H]4CC[C@H](CN32)N4)C1` (stereo partly drawn) [Example 228] reads 0.019 µM; that for `C#Cc1c(F)ccc2cc(O)cc(-c3nc4c5c(cc(=O)n(C[C@@]67CCCN6CC(=C)C7)c5c3F)N3C[C@H]5CC[C@H](N5)[C@H]3[C@H](C)O4)c12` [Example 330, (5S,5aS,6S,9R)-2-(8-ethynyl-7-fluoro-3-hydroxynaphthalen-1-yl)-1-fluoro-5-methyl-14-(((S)-2-methylenetetrahydro-1H-pyrrolizin-7a(5H)-yl)methyl)-5a,6,7,8,9,10-hexahydro-5H-6,9-epiminoazepino[2′,1′:3,4][1,4] oxazepino[5,6,7-de][1,6]naphthyridin-13(14H)-one], 0.171 µM; that for `C#Cc1c(F)ccc2cc(O)cc(-c3c(F)c4c5c(cc(=O)n(C[C@@]67CCCN6C[C@H](F)C7)c5c3F)N3C[C@H]5CC[C@H](N5)[C@H]3CO4)c12` [Example 332, (5aS,6S,9R)-2-(8-ethynyl-7-fluoro-3-hydroxynaphthalen-1-yl)-1,3-difluoro-14-(((2R,7aS)-2-fluorotetrahydro-1H-pyrrolizin-7a(5H)-yl)methyl)-5a,6,7,8,9,10-hexahydro-5H-6,9-epiminoazepino[2′,1′:3,4][1,4] oxazepino[5,6,7-de]quinolin-13(14H)-one], 0.778 µM.
The same measure, in the same setting: under `C#Cc1c(F)ccc2cccc(-c3nc4c5c(nc(=O)n([C@H](C)CN6[C@@H]7CC[C@H]6COC7)c5c3F)N3C[C@H]5CC[C@H](N5)[C@H]3[C@H](C)O4)c12` [Example 341, (5S,5aS,6S,9R)-13-((R)-1-((1R,5S)-3-oxa-8-azabicyclo[3.2.1]octan-8-yl)propan-2-yl)-2-(8-ethynyl-7-fluoronaphthalen-1-yl)-1-fluoro-5-methyl-5a,6,7,8,9,10-hexahydro-5H-4-oxa-3,10a,11,13,14-pentaaza-6,9-methanonaphtho[1,8-ab]heptalen-12(13H)-one] stands 0.07 µM; under `C#Cc1c(F)ccc2cccc(-c3nc4c5c(nc(=O)n(C[C@@]6(C)CCN6C)c5c3F)N3C[C@H]5CC[C@H](N5)[C@H]3[C@H](C)O4)c12` [Example 357, (5S,5aS,6S,9R)-13-(((R)-1,2-dimethylazetidin-2-yl)methyl)-2-(8-ethynyl-7-fluoronaphthalen-1-yl)-1-fluoro-5-methyl-5a,6,7,8,9,10-hexahydro-5H-4-oxa-3,10a,11,13,14-pentaaza-6,9-methanonaphtho[1,8-ab]heptalen-12(13H)-one], 0.123 µM.

The experiment is the same for the next values; noted with them: Homo sapiens; PANC-1 cells, compound incubation 3 hours, pERK normalised with GAPDH antibody staining.
For the compound `C#Cc1c(F)ccc2cc(O)cc(-c3nc4c5c(nc(=O)n(C[C@@]67CCCN6C[C@H](F)C7)c5c3F)N3C[C@H]5CC[C@H](N5)[C@H]3CO4)c12` [Example 23, (5aS,6S,9R)-2-(8-ethynyl-7-fluoro-3-hydroxynaphthalen-1-yl)-1-fluoro-13-(((2R,7aS)-2-fluorotetrahydro-1H-pyrrolizin-7a(5H)-yl)methyl)-5a,6,7,8,9,10-hexahydro-5H-4-oxa-3,10a,11,13,14-pentaaza-6,9-methanonaphtho[1,8-ab]heptalen-12(13H)-one], the 50% inhibitory concentration (IC50) was found to be 0.096 µM.

Still in this experiment, the particulars now being: PANC-1 cells, compound incubation 3 hours, pERK normalised with GAPDH antibody staining.
Turning to `C#Cc1c(F)ccc2cccc(-c3nc4c5c(nc(=O)n(CC(C)(CO)N(C)C)c5c3F)N3C[C@H]5CC[C@H](N5)[C@H]3[C@H](C)O4)c12` (single isomer, unassigned) [Example 365b], the 50% inhibitory concentration (IC50) was 0.11 µM.
The compound `C#Cc1c(F)ccc2cccc(-c3nc4c5c(nc(=O)n(C6C7CC6CN(C)C7)c5c3F)N3C[C@H]5CC[C@H](N5)[C@H]3[C@H](C)O4)c12` (single isomer, unassigned) [Example 371a] came in with an IC50 of 0.304 µM.
On the same count and under the same terms, under `C#Cc1c(F)ccc2cccc(-c3nc4c5c(nc(=O)n(C6C7CC6CN(C)C7)c5c3F)N3C[C@H]5CC[C@H](N5)[C@H]3[C@H](C)O4)c12` (single isomer, unassigned) [Example 371b] stands 0.794 µM; under `C#Cc1c(F)ccc2cccc(-c3nc4c5c(nc(=O)n(C(C)[C@H]6CCN6C)c5c3F)N3C[C@H]5CC[C@H](N5)[C@H]3[C@H](C)O4)c12` (single isomer, unassigned) [Example 372a], 0.391 µM; under `C#Cc1c(F)ccc2cccc(-c3nc4c5c(nc(=O)n(C(C)[C@H]6CCN6C)c5c3F)N3C[C@H]5CC[C@H](N5)[C@H]3[C@H](C)O4)c12` (single isomer, unassigned) [Example 372b], 0.07 µM.
Still for that read-out and setting: under `CCc1c(F)ccc2cc(O)cc(-c3nc4c5c(nc(=O)n(CC(C)(CO)N(C)C)c5c3F)N3C[C@H]5CC[C@H](N5)[C@H]3[C@H](C)O4)c12` (single isomer, unassigned) [Example 373b] stands 0.137 µM; under `CCc1c(F)ccc2cc(O)cc(-c3nc4c5c(nc(=O)n(C(C)[C@H]6CCN6C)c5c3F)N3C[C@H]5CC[C@H](N5)[C@H]3[C@H](C)O4)c12` (single isomer, unassigned) [Example 376b], 0.133 µM.
